# From US8802597B2, “Herbicidal pyrimidines” (E I du Pont de Nemours and Company, priority 2003, dated 2014)
# Legend:
# Type in all cases: in vivo
# [1] = system: chickweed (Stellaria media); experiment: Test C postemergence; conditions: for Chickweed plant response rating: 62 g ai/ha, scale 0 to 100 (0 no effect, 100 complete control); for Plant response rating, Chickweed: scale 0 to 100
# In short: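 Injury scored visually 12–14 days after application on 0–100 scale (100 = complete control), relative to controls. Compounds, formulated with surfactant in non-phytotoxic solvent, applied to soil at planting (pre) or to 1- to 4-leaf plants 2–18 cm tall (post) in greenhouse.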
# [2] = system: lambsquarters (Chenopodium album); experiment: Test C pre/postemergence; conditions: for Lambsquarters plant response rating: scale 0 to 100 (0 no effect, 100 complete control)
# Excerpt: (§1) Seeds or nutlets of plant species selected from bermudagrass (Cynodon dactylon), Surinam grass (Brachiaria decumbens), cocklebur (Xanthium strumarium), corn (Zea mays), crabgrass (Digitaria sanguinalis), woolly cupgrass (Eriochloa villosa), giant foxtail (Setaria faberii), goosegrass (Eleusine indica), johnsongrass (Sorghum halepense), kochia (Kochia scoparia), lambsquarters (Chenopodium album), morningglory (Ipomoea coccinea), eastern black nightshade (Solanum ptycanthum), yellow nutsedge (Cyperus esculentus), pigweed (Amaranthus retroflexus), common ragweed (Ambrosia elatior), soybean (Glycine max), common (oilseed) sunflower (Helianthus annuus), and velvetleaf (Abutilon theophrasti) were planted and treated preemergence with test chemicals formulated in a non-phytotoxic solvent mixture which included a surfactant.
# (§2) At the same time, plants selected from these crop and weed species and also winter barley (Hordeum vulgare), blackgrass (Alopecurus myosuroides), canarygrass (Phalaris minor), chickweed (Stellaria media), downy brome (Bromus tectorum), green foxtail (Setaria viridis), Italian ryegrass (Lolium multiflorum), wheat (Triticum aestivum), wild oat (Avena fatua) and windgrass (Apera spica-venti) were treated with postemergence applications of some of the test chemicals formulated in the same manner. Plants ranged in height from 2 to 18 cm (1- to 4-leaf stage) for postemergence treatments. Plant species in the flooded paddy test consisted of rice (Oryza sativa), umbrella sedge (Cyperus difformis), duck salad (Heteranthera limosa) and barnyardgrass (Echinochloa crus-galli) grown to the 2-leaf stage for testing. Treated plants and controls were maintained in a greenhouse for 12 to 14 days, after which time all species were compared to controls and visually evaluated. Plant response ratings, summarized in Table C, are based on a scale of 0 to 100 where 0 is no effect and 100 is complete control. A dash (-) response means no test result.
# [3] = system: soybean (Glycine max); experiment: Test C pre/postemergence; conditions: for Soybean plant response rating: scale 0 to 100 (0 no effect, 100 complete control)
# Excerpt: as §1, §2
# [4] = system: johnsongrass (Sorghum halepense); experiment: Test C pre/postemergence; conditions: for Johnsongrass plant response rating: scale 0 to 100 (0 no effect, 100 complete control)
# Excerpt: as §1, §2
# [5] = system: bermudagrass (Cynodon dactylon); experiment: Test C pre/postemergence; conditions: for Bermudagrass plant response rating: scale 0 to 100 (0 no effect, 100 complete control)
# Excerpt: as §1, §2
# [6] = Postemergence, 250 g ai/ha, scale 0 to 100
# [7] = Postemergence, 500 g ai/ha, scale 0 to 100
# [8] = Preemergence, 62 g ai/ha, scale 0 to 100, 0 no effect, 100 complete control
# [9] = Preemergence, 125 g ai/ha, scale 0 to 100
# [10] = Preemergence, 250 g ai/ha, scale 0 to 100
# [11] = Preemergence, 500 g ai/ha, scale 0 to 100
# [12] = Postemergence, 125 g ai/ha, scale 0 to 100
# [13] = Preemergence, 31 g ai/ha, scale 0 to 100, 0 no effect, 100 complete control
# [14] = Preemergence, 16 g ai/ha, scale 0 to 100, 0 no effect, 100 complete control
compound,measurement,setting,value
CCCOC(=O)c1nc(C2CC2)nc(N)c1Br [Compound 15],Chickweed plant response rating,[1],20
same,"Plant response rating, Chickweed",[1]; 125 g ai/ha,50
same,"Plant response rating, Chickweed",[1]; 250 g ai/ha,65
same,"Plant response rating, Chickweed",[1]; 500 g ai/ha,85
same,Lambsquarters plant response rating,"[2]; Postemergence, 62 g ai/ha",100
same,Lambsquarters plant response rating,"[2]; Postemergence, 125 g ai/ha",100
same,"Plant response rating, Lambsquarters",[2]; [6],100
same,"Plant response rating, Lambsquarters",[2]; [7],100
same,"Plant response rating, Lambsquarters",[2]; [8],95
same,"Plant response rating, Lambsquarters",[2]; [9],100
same,"Plant response rating, Lambsquarters",[2]; [10],100
same,"Plant response rating, Lambsquarters",[2]; [11],100
same,Soybean plant response rating,"[3]; Postemergence, 62 g ai/ha",95
same,Soybean plant response rating,"[3]; Postemergence, 125 g ai/ha",95
same,"Plant response rating, Soybean",[3]; [6],95
same,"Plant response rating, Soybean",[3]; [7],100
same,"Plant response rating, Soybean",[3]; [8],75
same,"Plant response rating, Soybean",[3]; [9],90
same,"Plant response rating, Soybean",[3]; [10],95
same,"Plant response rating, Soybean",[3]; [11],100
same,Johnsongrass plant response rating,"[4]; Postemergence, 62 g ai/ha",20
same,Johnsongrass plant response rating,"[4]; Postemergence, 125 g ai/ha",55
same,"Plant response rating, Johnsongrass",[4]; [6],70
same,"Plant response rating, Johnsongrass",[4]; [7],80
same,"Plant response rating, Johnsongrass",[4]; [8],20
same,"Plant response rating, Johnsongrass",[4]; [9],65
same,"Plant response rating, Johnsongrass",[4]; [10],75
same,"Plant response rating, Johnsongrass",[4]; [11],95
same,Bermudagrass plant response rating,"[5]; Postemergence, 62 g ai/ha",0
same,"Plant response rating, Bermudagrass",[5]; [6],65
same,"Plant response rating, Bermudagrass",[5]; [7],75
same,"Plant response rating, Bermudagrass",[5]; [12],45
same,"Plant response rating, Bermudagrass",[5]; [8],0
same,"Plant response rating, Bermudagrass",[5]; [9],0
same,"Plant response rating, Bermudagrass",[5]; [10],0
same,"Plant response rating, Bermudagrass",[5]; [11],70
CCCCOC(=O)c1nc(C2CC2)nc(N)c1Br [Compound 16],"Plant response rating (scale of 0 to 100), Chickweed",[1]; 31 g ai/ha,0
same,Chickweed plant response rating,[1],0
same,"Plant response rating, Chickweed",[1]; 125 g ai/ha,20
same,"Plant response rating, Chickweed",[1]; 250 g ai/ha,35
same,"Plant response rating (scale of 0 to 100), Lambsquarters","[2]; Postemergence, 31 g ai/ha",95
same,Lambsquarters plant response rating,"[2]; Postemergence, 62 g ai/ha",100
same,Lambsquarters plant response rating,"[2]; Postemergence, 125 g ai/ha",100
same,"Plant response rating, Lambsquarters",[2]; [6],100
same,"Plant response rating, Lambsquarters",[2]; [13],95
same,"Plant response rating, Lambsquarters",[2]; [8],95
same,"Plant response rating, Lambsquarters",[2]; [9],100
same,"Plant response rating, Lambsquarters",[2]; [10],100
same,"Plant response rating (scale of 0 to 100), Soybean","[3]; Postemergence, 31 g ai/ha",85
same,Soybean plant response rating,"[3]; Postemergence, 62 g ai/ha",95
same,Soybean plant response rating,"[3]; Postemergence, 125 g ai/ha",100
same,"Plant response rating, Soybean",[3]; [6],100
same,"Plant response rating, Soybean",[3]; [13],75
same,"Plant response rating, Soybean",[3]; [8],85
same,"Plant response rating, Soybean",[3]; [9],100
same,"Plant response rating, Soybean",[3]; [10],100
same,"Plant response rating (scale of 0 to 100), Johnsongrass","[4]; Postemergence, 31 g ai/ha",0
same,Johnsongrass plant response rating,"[4]; Postemergence, 62 g ai/ha",0
same,Johnsongrass plant response rating,"[4]; Postemergence, 125 g ai/ha",60
same,"Plant response rating, Johnsongrass",[4]; [6],70
same,"Plant response rating, Johnsongrass",[4]; [13],0
same,"Plant response rating, Johnsongrass",[4]; [8],40
same,"Plant response rating, Johnsongrass",[4]; [9],65
same,"Plant response rating, Johnsongrass",[4]; [10],80
same,"Plant response rating (scale of 0 to 100), Bermudagrass","[5]; Postemergence, 31 g ai/ha",0
same,Bermudagrass plant response rating,"[5]; Postemergence, 62 g ai/ha",0
same,"Plant response rating, Bermudagrass",[5]; [6],75
same,"Plant response rating, Bermudagrass",[5]; [12],60
same,"Plant response rating, Bermudagrass",[5]; [13],0
same,"Plant response rating, Bermudagrass",[5]; [8],0
same,"Plant response rating, Bermudagrass",[5]; [9],0
same,"Plant response rating, Bermudagrass",[5]; [10],0
CC(C)COC(=O)c1nc(C2CC2)nc(N)c1Br [Compound 17],"Plant response rating (scale of 0 to 100), Chickweed",[1]; 31 g ai/ha,0
same,Chickweed plant response rating,[1],0
same,"Plant response rating, Chickweed",[1]; 125 g ai/ha,55
same,"Plant response rating, Chickweed",[1]; 250 g ai/ha,85
same,"Plant response rating (scale of 0 to 100), Lambsquarters","[2]; Postemergence, 31 g ai/ha",95
same,Lambsquarters plant response rating,"[2]; Postemergence, 62 g ai/ha",100
same,Lambsquarters plant response rating,"[2]; Postemergence, 125 g ai/ha",100
same,"Plant response rating, Lambsquarters",[2]; [6],100
same,"Plant response rating, Lambsquarters",[2]; [13],95
same,"Plant response rating, Lambsquarters",[2]; [8],95
same,"Plant response rating, Lambsquarters",[2]; [9],100
same,"Plant response rating, Lambsquarters",[2]; [10],100
same,"Plant response rating (scale of 0 to 100), Soybean","[3]; Postemergence, 31 g ai/ha",85
same,Soybean plant response rating,"[3]; Postemergence, 62 g ai/ha",95
same,Soybean plant response rating,"[3]; Postemergence, 125 g ai/ha",100
same,"Plant response rating, Soybean",[3]; [6],100
same,"Plant response rating, Soybean",[3]; [13],70
same,"Plant response rating, Soybean",[3]; [8],90
same,"Plant response rating, Soybean",[3]; [9],95
same,"Plant response rating, Soybean",[3]; [10],100
same,"Plant response rating (scale of 0 to 100), Johnsongrass","[4]; Postemergence, 31 g ai/ha",0
same,Johnsongrass plant response rating,"[4]; Postemergence, 62 g ai/ha",0
same,Johnsongrass plant response rating,"[4]; Postemergence, 125 g ai/ha",40
same,"Plant response rating, Johnsongrass",[4]; [6],60
same,"Plant response rating, Johnsongrass",[4]; [13],0
same,"Plant response rating, Johnsongrass",[4]; [8],0
same,"Plant response rating, Johnsongrass",[4]; [9],55
same,"Plant response rating, Johnsongrass",[4]; [10],75
same,"Plant response rating (scale of 0 to 100), Bermudagrass","[5]; Postemergence, 31 g ai/ha",0
same,Bermudagrass plant response rating,"[5]; Postemergence, 62 g ai/ha",0
same,"Plant response rating, Bermudagrass",[5]; [6],0
same,"Plant response rating, Bermudagrass",[5]; [12],0
same,"Plant response rating, Bermudagrass",[5]; [13],0
same,"Plant response rating, Bermudagrass",[5]; [8],0
same,"Plant response rating, Bermudagrass",[5]; [9],0
same,"Plant response rating, Bermudagrass",[5]; [10],0
COC(=O)c1nc(C2CC2)nc(N=CN(C)C)c1Br [Compound 19],"Plant response rating (scale of 0 to 100), Chickweed",[1]; 16 g ai/ha,0
same,"Plant response rating (scale of 0 to 100), Chickweed",[1]; 31 g ai/ha,0
same,Chickweed plant response rating,[1],5
same,"Plant response rating, Chickweed",[1]; 125 g ai/ha,5
same,"Plant response rating (scale of 0 to 100), Lambsquarters","[2]; Postemergence, 16 g ai/ha",70
same,"Plant response rating (scale of 0 to 100), Lambsquarters","[2]; Postemergence, 31 g ai/ha",90
same,Lambsquarters plant response rating,"[2]; Postemergence, 62 g ai/ha",90
same,Lambsquarters plant response rating,"[2]; Postemergence, 125 g ai/ha",95
same,"Plant response rating, Lambsquarters",[2]; [14],75
same,"Plant response rating, Lambsquarters",[2]; [13],100
same,"Plant response rating, Lambsquarters",[2]; [8],100
same,"Plant response rating, Lambsquarters",[2]; [9],100
same,"Plant response rating (scale of 0 to 100), Soybean","[3]; Postemergence, 16 g ai/ha",45
same,"Plant response rating (scale of 0 to 100), Soybean","[3]; Postemergence, 31 g ai/ha",55
same,Soybean plant response rating,"[3]; Postemergence, 62 g ai/ha",75
same,Soybean plant response rating,"[3]; Postemergence, 125 g ai/ha",75
same,"Plant response rating, Soybean",[3]; [14],0
same,"Plant response rating, Soybean",[3]; [13],25
same,"Plant response rating, Soybean",[3]; [8],85
same,"Plant response rating, Soybean",[3]; [9],90
same,"Plant response rating (scale of 0 to 100), Johnsongrass","[4]; Postemergence, 16 g ai/ha",0
same,"Plant response rating (scale of 0 to 100), Johnsongrass","[4]; Postemergence, 31 g ai/ha",0
same,Johnsongrass plant response rating,"[4]; Postemergence, 62 g ai/ha",0
same,"Plant response rating, Johnsongrass",[4]; [14],0
same,"Plant response rating, Johnsongrass",[4]; [13],0
same,"Plant response rating, Johnsongrass",[4]; [8],35
same,"Plant response rating, Johnsongrass",[4]; [9],55
same,"Plant response rating (scale of 0 to 100), Bermudagrass","[5]; Postemergence, 16 g ai/ha",0
same,"Plant response rating (scale of 0 to 100), Bermudagrass","[5]; Postemergence, 31 g ai/ha",5
same,Bermudagrass plant response rating,"[5]; Postemergence, 62 g ai/ha",30
same,"Plant response rating, Bermudagrass",[5]; [12],45
same,"Plant response rating, Bermudagrass",[5]; [14],0
same,"Plant response rating, Bermudagrass",[5]; [13],0
same,"Plant response rating, Bermudagrass",[5]; [8],0
same,"Plant response rating, Bermudagrass",[5]; [9],0
